Measured values as given in patent publication US12662491B2 (Redona Therapeutics, Inc., priority 2020, dated 2026).

The compounds below were run against T1, Zcchc11 enzyme (Homo sapiens, UniProt Q5TAX3) (assay: TUTase assay (Zcchc11 assay, Lin28a-dependent polyuridylation of pre-let-7)). Settings: Lin28a-dependent Zcchc11 (Z11) TUTase activity; read-out: Potency Lin28a-dep Z11 IC50.
T1 construct: made in house; host or cells: HEK293 cells (Zcchc11); E. coli Rosetta II (LIN28A)
T1 sequence (Q5TAX3 212-1420): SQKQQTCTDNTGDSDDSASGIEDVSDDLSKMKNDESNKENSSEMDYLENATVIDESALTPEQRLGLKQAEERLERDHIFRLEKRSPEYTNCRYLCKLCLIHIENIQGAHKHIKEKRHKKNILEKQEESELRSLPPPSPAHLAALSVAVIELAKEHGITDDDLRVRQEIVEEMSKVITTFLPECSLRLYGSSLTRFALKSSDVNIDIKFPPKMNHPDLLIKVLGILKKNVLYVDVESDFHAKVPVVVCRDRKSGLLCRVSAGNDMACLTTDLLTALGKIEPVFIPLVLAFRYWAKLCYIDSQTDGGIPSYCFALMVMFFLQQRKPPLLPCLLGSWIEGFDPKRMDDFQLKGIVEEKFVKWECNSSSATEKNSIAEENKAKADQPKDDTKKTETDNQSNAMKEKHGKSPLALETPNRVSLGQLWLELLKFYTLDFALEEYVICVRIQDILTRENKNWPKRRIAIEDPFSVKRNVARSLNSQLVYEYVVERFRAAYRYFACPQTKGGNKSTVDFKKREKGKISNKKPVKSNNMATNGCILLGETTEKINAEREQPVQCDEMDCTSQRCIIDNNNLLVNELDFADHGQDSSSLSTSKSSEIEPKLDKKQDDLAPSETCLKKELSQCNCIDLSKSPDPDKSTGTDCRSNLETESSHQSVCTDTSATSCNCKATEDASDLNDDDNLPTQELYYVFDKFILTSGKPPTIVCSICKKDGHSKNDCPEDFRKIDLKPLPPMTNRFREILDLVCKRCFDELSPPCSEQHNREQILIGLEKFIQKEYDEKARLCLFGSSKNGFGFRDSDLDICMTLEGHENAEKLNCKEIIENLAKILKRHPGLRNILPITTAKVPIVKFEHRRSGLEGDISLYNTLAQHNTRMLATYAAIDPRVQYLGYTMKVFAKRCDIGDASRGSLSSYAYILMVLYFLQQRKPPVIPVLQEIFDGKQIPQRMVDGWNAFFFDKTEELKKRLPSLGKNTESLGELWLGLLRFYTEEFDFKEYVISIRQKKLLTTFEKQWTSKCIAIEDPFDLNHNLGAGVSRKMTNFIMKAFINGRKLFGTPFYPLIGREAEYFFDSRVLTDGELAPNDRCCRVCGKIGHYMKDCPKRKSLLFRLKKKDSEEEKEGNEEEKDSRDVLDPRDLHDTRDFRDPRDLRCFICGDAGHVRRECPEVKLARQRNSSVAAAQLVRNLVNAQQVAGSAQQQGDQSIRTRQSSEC
Assay type: biochemical
Procedure, shortened: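 Polyuridylation measured as fluorescein loss when a rhodamine-labelled A20 probe anneals to U-tails added to fluorescein pre-let-7 (2 nM). Reaction: truncated Zcchc11 0.2 nM, E. coli-made LIN28A 10 nM, UTP 5 uM, HEPES pH 7.3, room temperature. Initial rates fitted to four-parameter IC50.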
For O=C(O)c1cn(-c2ccccc2)c2cc(N3CCC[C@@H]3COc3ncccc3C(F)(F)F)c(F)cc2c1=O [Compound 100, (R)-6-fluoro-4-oxo-1-phenyl-7-(2-(((3-(trifluoro-methyl)pyridin-2-yl)oxy)methyl)pyrrolidin-1-yl)-1,4-dihydro-quinoline-3-carboxylic acid], the IC50 was no more than 1000 nM. Cc1cccnc1OC[C@H]1CCCN1c1cc2c(cc1F)c(=O)c(C(=O)O)cn2-c1ccc(O)cc1F [Compound 101, (R)-6-fluoro-1-(2-fluoro-4-hydroxy-phenyl)-7-(2-(((3-methyl-pyridin-2-yl)oxy)methyl)pyrrolidin-1-yl)-4-oxo-1,4-dihydro-quinoline-3-carboxylic acid] showed an IC50 of no more than 1000 nM. Work on Cc1cccnc1OC[C@H]1CCCN1c1cc2c(cc1F)c(=O)c(C(=O)O)cn2C1CC1 [Compound 102, (R)-1-cyclopropyl-6-fluoro-7-(2-(((3-methyl-pyridin-2-yl)oxy)methyl)pyrrolidin-1-yl)-4-oxo-1,4-dihydro-quinoline-3-carboxylic acid] yielded an IC50 of no more than 1000 nM. In the case of Cc1cccnc1OC[C@H]1CCCN1c1cc2c(cc1Cl)c(=O)c(C(=O)O)cn2-c1ccccc1 [Compound 103, (R)-6-chloro-7-(2-(((3-methyl-pyridin-2-yl)oxy)methyl)pyrrolidin-1-yl)-4-oxo-1-phenyl-1,4-dihydro-quinoline-3-carboxylic acid], the IC50 is reported as no more than 1000 nM. With Cc1cccnc1OC[C@H]1CCCN1c1cc2c(cc1Cl)c(=O)c(C(=O)O)cn2-c1ccc(O)cc1 [Compound 104, (R)-6-chloro-1-(4-hydroxy-phenyl)-7-(2-(((3-methyl-pyridin-2-yl)oxy)methyl)pyrrolidin-1-yl)-4-oxo-1,4-dihydro-quinoline-3-carboxylic acid] the IC50 was no more than 1000 nM. With Cc1ccccc1OC[C@H]1CCCN1c1cc2c(cc1F)c(=O)c(C(=O)O)cn2-c1ccc(O)cc1 [Compound 105, (R)-6-fluoro-1-(4-hydroxy-phenyl)-4-oxo-7-(2-((o-tolyloxy)methyl)pyrrolidin-1-yl)-1,4-dihydro-quinoline-3-carboxylic acid] the IC50 was 1000 to 10000 nM. For Cc1cccc(C)c1OC[C@H]1CCCN1c1cc2c(cc1F)c(=O)c(C(=O)O)cn2-c1ccc(O)cc1 [Compound 106, (R)-7-(2-((2,6-dimethyl-phenoxy)methyl)pyrrolidin-1-yl)-6-fluoro-1-(4-hydroxy-phenyl)-4-oxo-1,4-dihydro-quinoline-3-carboxylic acid], the IC50 was greater than 50000 nM. O=C(O)c1cn(-c2ccc(O)cc2)c2cc(N3CCC[C@@H]3COc3ccccc3Cl)c(F)cc2c1=O [Compound 107, (R)-7-(2-((2-chlorophenoxy)methyl)pyrrolidin-1-yl)-6-fluoro-1-(4-hydroxy-phenyl)-4-oxo-1,4-dihydro-quinoline-3-carboxylic acid] gave an IC50 of 1000 to 10000 nM. CC1(n2cc(C(=O)O)c(=O)c3cc(Cl)c(N4CCC4COc4ccccn4)cc32)CC1 (stereo not drawn) [Compound 108, 6-chloro-1-(1-methyl-cyclopropyl)-4-oxo-7-(2-((pyridin-2-yloxy)methyl)azetidin-1-yl)-1,4-dihydro-quinoline-3-carboxylic acid] showed an IC50 of 10000 to 50000 nM. Work on O=C(O)c1cn(-c2ccccc2)c2cc(N3CCC[C@@H]3COc3ncccc3Cl)c(Cl)cc2c1=O [Compound 109, (R)-6-chloro-7-(2-(((3-chloropyridin-2-yl)oxy)methyl)pyrrolidin-1-yl)-4-oxo-1-phenyl-1,4-dihydro-quinoline-3-carboxylic acid] yielded an IC50 of no more than 1000 nM. In the case of N#Cc1cccnc1OC[C@H]1CCCN1c1cc2c(cc1Cl)c(=O)c(C(=O)O)cn2-c1ccccc1 [Compound 110, (R)-6-chloro-7-(2-(((3-cyanopyridin-2-yl)oxy)methyl)pyrrolidin-1-yl)-4-oxo-1-phenyl-1,4-dihydro-quinoline-3-carboxylic acid], the IC50 is reported as no more than 1000 nM. O=C(O)c1cn(C2CC2)c2cc(N3CCC[C@@H]3COc3ccccn3)c(Cl)cc2c1=O [Compound 111, (R)-6-chloro-1-cyclopropyl-4-oxo-7-(2-((pyridin-2-yloxy)methyl)pyrrolidin-1-yl)-1,4-dihydro-quinoline-3-carboxylic acid] showed an IC50 of 1000 to 10000 nM. Work on O=C(O)c1cn(-c2ccc(O)cc2)c2cc(N3CCC[C@@H]3CNc3ncccc3Cl)c(F)cc2c1=O [Compound 112, (R)-7-(2-(((3-chloropyridin-2-yl)amino)methyl)pyrrolidin-1-yl)-6-fluoro-1-(4-hydroxy-phenyl)-4-oxo-1,4-dihydro-quinoline-3-carboxylic acid] yielded an IC50 of no more than 1000 nM. For O=C(O)c1cn(-c2ccc(O)cc2)c2cc(N3CCC[C@@H]3Cn3ccc4cccnc43)c(F)cc2c1=O [Compound 113, (R)-7-(2-((1H-pyrrolo[2,3-b]pyridin-1-yl)methyl)pyrrolidin-1-yl)-6-fluoro-1-(4-hydroxy-phenyl)-4-oxo-1,4-dihydro-quinoline-3-carboxylic acid], the IC50 was no more than 1000 nM. For CC1(n2cc(C(=O)O)c(=O)c3cc(Cl)c(N4CCC[C@@H]4CN4CCOCC4)cc32)CC1 [Compound 114, (R)-6-chloro-1-(1-methylcyclo-propyl)-7-(2-(morpholino-methyl)pyrrolidin-1-yl)-4-oxo-1,4-dihydro-quinoline-3-carboxylic acid], the IC50 was greater than 50000 nM. Work on CC1(n2cc(C(=O)O)c(=O)c3cc(Cl)c(N4CCC[C@@H]4CN4CCc5cccnc54)cc32)CC1 [Compound 115, (R)-6-chloro-7-(2-((2,3-dihydro-1H-pyrrolo[2,3-b]pyridin-1-yl)methyl)pyrrolidin-1-yl)-1-(1-methylcyclo-propyl)-4-oxo-1,4-dihydro-quinoline-3-carboxylic acid] yielded an IC50 of 1000 to 10000 nM. O=C(O)c1cn(-c2ccc(O)cc2)c2cc(N3CCC[C@@H]3COc3nccc4[nH]cnc34)c(F)cc2c1=O [Compound 116, (R)-7-(2-(((1H-imidazo[4,5-c]pyridin-4-yl)oxy)methyl)pyrrolidin-1-yl)-6-fluoro-1-(4-hydroxy-phenyl)-4-oxo-1,4-dihydro-quinoline-3-carboxylic acid] was tested, and the IC50 was 1000 to 10000 nM. For O=C(O)c1cn(-c2ccc(O)cc2)c2cc(N3CCC[C@@H]3COc3nccc4cc[nH]c34)c(F)cc2c1=O [Compound 117, (R)-7-(2-(((1H-pyrrolo[2,3-c]pyridin-7-yl)oxy)methyl)pyrrolidin-1-yl)-6-fluoro-1-(4-hydroxy-phenyl)-4-oxo-1,4-dihydro-quinoline-3-carboxylic acid], the IC50 was no more than 1000 nM. O=C(O)c1cn(-c2ccc(O)cc2)c2cc(N3CCC[C@@H]3COc3cc4cc[nH]c4cn3)c(F)cc2c1=O [Compound 118, (R)-7-(2-(((1H-pyrrolo[2,3-c]pyridin-5-yl)oxy)methyl)pyrrolidin-1-yl)-6-fluoro-1-(4-hydroxy-phenyl)-4-oxo-1,4-dihydro-quinoline-3-carboxylic acid] gave an IC50 of no more than 1000 nM. Cc1cccnc1OC[C@H]1CCCN1c1cc2c(cc1F)c(=O)c(C(=O)O)cn2-c1ccc(O)cc1 [Compound 119, (R)-6-fluoro-1-(4-hydroxy-phenyl)-7-(2-(((3-methylpyridin-2-yl)oxy)methyl)pyrrolidin-1-yl)-4-oxo-1,4-dihydro-quinoline-3-carboxylic acid] gave an IC50 of no more than 1000 nM. Work on Cc1cccnc1OC[C@H]1CCCN1c1cc2c(cc1F)c(=O)c(C(=O)O)cn2-c1ccc(O)c(F)c1 [Compound 120, (R)-6-fluoro-1-(3-fluoro-4-hydroxy-phenyl)-7-(2-(((3-methylpyridin-2-yl)oxy)methyl)pyrrolidin-1-yl)-4-oxo-1,4-dihydro-quinoline-3-carboxylic acid] yielded an IC50 of no more than 1000 nM.
